Consider 16 substances from US20110039763A1, “TARGETED ANTIMICROBIAL MOIETIES” (C3 JIAN, INC., priority 2009, published 2011).

“Also recorded” adds a separate entry of the source.

The test deals with microorganisms. Nature of the test: Targeting peptide binding to target microorganisms (Tables 3, 10, 12). The settings on record: peptide binding in aqueous buffers that varied with peptide solubility; preferably 1x PBS. An excerpt:
In certain embodiments, the targeting moiety comprises one or more targeting peptides that bind particular bacteria, fungi, and/or yeasts, and/or algae, and/or viruses and/or that bind particular groups of bacteria, and/or groups of fungi, and/or groups of yeasts, and/or groups of algae.
In certain embodiments the targeting peptides include peptides comprising or consisting of one or more of the amino acid sequences shown in Table 3 (SEQ ID NOs:13-1566). In various embodiments the peptides include peptides comprising or consisting of the retro, inverso, retro-inverso, and/or beta form of one or more of the amino acid sequences shown in Table 3. Also contemplated are circular permutations of these sequences as well as peptides comprising or consisting of the retro, inverso, retro-inverso, and/or beta form of such circular permutations.
In certain embodiments the targeting peptide can comprise one or more domains capable of binding, specifically binding, or preferentially binding to a microorganism, e.g., a target microbial organism (see, e.g., Table 3). In certain embodiment, the targeting peptide be identified via screening peptide libraries. For example, a phage display peptide library can be screened against a target microbial organism or a desired antigen or epitope thereof. Any peptide identified through such screening can be used as a targeting peptide for the target microbial organism.

“1T-40 (QRVSLWSEVEHEFR; Peptide with targeting and/or antimicrobial activity)”: the “Target(s) (microorganism bound by the targeting peptide)” value is listed as “S. mutans; also recorded: P. aeruginosa”.

Regarding “1T-41 (KRGSKIVIAIAVVLIVLAGVWVW; Peptide with targeting and/or antimicrobial activity)”, the “Target(s) (microorganism bound by the targeting peptide)” value is recorded as “S. mutans; also recorded: S. aureus; also recorded: S. epidermidis; also recorded: C. jeikeium; also recorded: C. striatum; also recorded: P. aeruginosa”.

Take “1T-42 (TVLDWLSLALATGLFVYLLVALLRADRA; Peptide with targeting and/or antimicrobial activity)”: the “Target(s) (microorganism bound by the targeting peptide)” value is “S. aureus; also recorded: S. epidermidis; also recorded: C. xerosis; also recorded: C. striatum; also recorded: P. aeruginosa”.

On to “1T-43 (DRCLSVLSWSPPKVSPLI; Peptide with targeting and/or antimicrobial activity)”, for which the “Target(s) (microorganism bound by the targeting peptide)” value is on record as “C. jeikium; also recorded: P. aeruginosa”.

For the substance “1T-44 (DPALADFAAGMRAQVRT; Peptide with targeting and/or antimicrobial activity)”, the “Target(s) (microorganism bound by the targeting peptide)” value is recorded as “S. mutans; also recorded: S. aureus; also recorded: S. epidermidis; also recorded: C. jeikeium; also recorded: C. striatum; also recorded: P. aeruginosa”.

For “1T-45 (WTKPSFTDLRLGFEVTLYFANR; Peptide with targeting and/or antimicrobial activity)”, the “Target(s) (microorganism bound by the targeting peptide)” value is given as “S. aureus; also recorded: S. epidermidis; also recorded: C. striatum; also recorded: P. aeruginosa”.

In the case of “1T-46 (FSFKQRVMFRKEVERLR; Peptide with targeting and/or antimicrobial activity)”, the “Target(s) (microorganism bound by the targeting peptide)” value is “S. aureus; also recorded: S. epidermidis; also recorded: C. jeikeium; also recorded: C. xerosis; also recorded: C. striatum; also recorded: P. aeruginosa”.

For “1T-47 (VIKISVPGQVQMLIP; Peptide with targeting and/or antimicrobial activity)”, the “Target(s) (microorganism bound by the targeting peptide)” value is “S. mutans; also recorded: S. epidermidis; also recorded: P. aeruginosa”.

Regarding “1T-48 (KLQVHHGRATHTLLLQPPLCAPGTIR; Peptide with targeting and/or antimicrobial activity)”, the “Target(s) (microorganism bound by the targeting peptide)” value is “S. aureus; also recorded: S. epidermidis; also recorded: C. jeikeium; also recorded: C. xerosis; also recorded: C. striatum; also recorded: P. aeruginosa”.

In the case of “1T-49 (SLVRIHDQQPWVTRGAFIDAARTCS; Peptide with targeting and/or antimicrobial activity)”, the “Target(s) (microorganism bound by the targeting peptide)” value was “S. aureus; also recorded: S. epidermidis; also recorded: C. jeikeium; also recorded: P. aeruginosa”.

For the substance “1T-50 (HSDEPIPNILFKSDSVH; Peptide with targeting and/or antimicrobial activity)”, the “Target(s) (microorganism bound by the targeting peptide)” value was “P. aeruginosa”.

In the case of “1T-51 (GKPKRMPAEFIDGYGQALLAGA; Peptide with targeting and/or antimicrobial activity)”, the “Target(s) (microorganism bound by the targeting peptide)” value is reported as “S. aureus; also recorded: P. aeruginosa”.

In the case of “1T-52 (DEYPAKLPLSDKGATEPRRH; Peptide with targeting and/or antimicrobial activity)”, the “Target(s) (microorganism bound by the targeting peptide)” value was “S. aureus; also recorded: C. xerosis; also recorded: P. aeruginosa”.

With “1T-53 (SDILAEMFEKGELQTLVKDAAAKANA; Peptide with targeting and/or antimicrobial activity)”, the “Target(s) (microorganism bound by the targeting peptide)” value is reported as “P. aeruginosa”.

Regarding “1T-54 (RWVSCNPSWRIQ; Peptide with targeting and/or antimicrobial activity)”, the “Target(s) (microorganism bound by the targeting peptide)” value is “S. epidermidis; also recorded: C. xerosis; also recorded: C. striatum; also recorded: P. aeruginosa”.

As for “1T-55 (NHKTLKEWKAKWGPEAVESWATLLG; Peptide with targeting and/or antimicrobial activity)”, the “Target(s) (microorganism bound by the targeting peptide)” value was “C. xerosis; also recorded: P. aeruginosa”.
